Reference: patent publication US7977341B2, “Substituted isoxazoles as fungicides” (Syngenta Limited, priority 2004, dated 2011)
Where two headings read alike, the source gives them in different places.

Experiments:
Septoria tritici = test: Fungicidal activity, microtiter plate format; type: cell-based
Botrytis cinerea = test: Fungicidal activity, microtiter plate format; type: cell-based
Stagonospora nodorum = test: Fungicidal activity, microtiter plate format; type: cell-based; details: for IC50: Parastagonospora nodorum, read-out: IC50 S. nodorum
Phytophthora infestans = test: microbe, parasite or virus in culture; type: cell-based; details: read-out: IC50 P. infestans
Puccinia recondita = test: Cereal field trial on soft red winter wheat (leaf rust); type: in vivo; details: wheat cultivar Sisson
Procedure: A field trial of Compound 4 was conducted on soft red winter wheat cultivar Sisson. Very dry weather gave rise to a low natural incidence of leaf rust (Puccinia recondita: PUCCRT) late in the trial. Compound 4 was applied as a 9.5% active ingredient (weight/weight) emulsifiable concentrate of the following formula (each weight/weight): 9.5% Compound 4, 9.5% m-Pyrol, 65% Surfadone LP-100, 6% Surfadone LP-300, 5% Toximul 3463F, and 5% Toximul 3464F. Rates of Compound 4 application were as follows (grams active ingredient per hectare: g a.i./ha): 140, 280 and 421.

Sclerotinia homoeocarpa = test: Turf trial on creeping bentgrass (dollar spot)
Procedure: A fungicide trial was conducted on a 15-yr-old sward of creeping bentgrass v. Penncross during the spring. […] Treatments were arranged as plots (0.5×1.0 m) in a randomized complete block design with four replications. […] The turfgrass was inoculated with autoclaved tall fescue seed infested with Sclerotinia homoeocarpa (common name: dollar spot) six hours after application of the initial preventive treatments. The plots received approximately 0.24 inches of irrigation water daily at 1700 hour to ensure nightly foliar wetness for infection. The Horsfall-Barratt rating scale was used to visually estimate disease severity at approximately 7-day intervals from the initial application date. Turfgrass quality was assessed using a 0-9 scale where 0=a necrotic, thin foliar canopy and 9=a dark green, dense foliar canopy. Disease and quality values were subjected to analysis of variance and means were statistically separated using the Scott-Knott cluster analysis procedure.

[1] = fungal growth on agar, 20° C., 3-5 days, C.V. class in parentheses

Row | SMILES | IC50 S. tritici (Septoria tritici) | IC50 (Phytophthora infestans) | IC50 S. tritici (Septoria tritici; [1]) | IC50 B. cinerea (Botrytis cinerea; [1]) | IC50 S. nodorum (Stagonospora nodorum; [1]) | also measured
1 | C[Si](C)(C)c1onc(-c2c(Cl)cccc2Cl)c1C(O)c1cccnc1 (stereo not shown) [Compound 1, 3-(2,6-Dichlorophenyl)-4-[(3-pyridyl)hydroxymethyl]-5-trimethylsilylisoxazole] | C (b) | > 100 µM | – | – | – | IC50 (Botrytis cinerea; Botrytis cinerea, read-out: IC50 B. cinerea): > 100 µM; IC50 (Stagonospora nodorum): > 100 µM
2 | C[Si](C)(C)c1onc(-c2ccc(Cl)cc2Cl)c1C(O)c1cccnc1 (stereo not shown) [Compound 3, 3-(2,4-Dichlorophenyl)-4-[(3-pyridyl)hydroxymethyl]-5-trimethylsilylisoxazole] | A (b) | > 100 µM | – | – | – | IC50 B. cinerea (Botrytis cinerea): B (b); IC50 S. nodorum (Stagonospora nodorum): B (d)
3 | OC(c1cccnc1)c1c(-c2ccc(Cl)cc2Cl)noc1-c1cccc(Cl)c1 (stereo not shown) [Compound 4, 5-(3-Chlorophenyl)-3-(2,4-dichlorophenyl)-4-[(3-pyridyl)hydroxymethyl]-isoxazole] | – | > 100 µM | A (c) | B (d) | A (b) | Control of leaf rust incidence (Puccinia recondita; 9.5% emulsifiable concentrate, 140, 280 and 421 g a.i./ha, low natural incidence): good control of the rust incidence; Yield enhancement (Puccinia recondita; highest rate of Compound 4): Yield enhancement was observed; Dollar spot disease control (Horsfall-Barratt disease severity) (Sclerotinia homoeocarpa; creeping bentgrass v. Penncross, Compound 4 as 25% wetable powder at 2.2, 4.4, 8.8 g a.i./1000 sq ft, mean disease <3.0% acceptable): effective control on dollar spot during most of the trial period; Turfgrass quality (0-9 scale) (Sclerotinia homoeocarpa; creeping bentgrass, ratings >6.0 acceptable): Highest quality ratings
4 | CC(C)(C)c1onc(-c2ccc(Cl)cc2Cl)c1C(O)c1cccnc1 (stereo not shown) [Compound 7, 3-(2,4-Dichlorophenyl)-5-(1,1-dimethylethyl)-4-[(3-pyridyl)hydroxymethyl]-isoxazole] | – | > 100 µM | – | B (c) | – | IC50 (Septoria tritici; Zymoseptoria tritici, fungal growth on agar, 20° C., 3-5 days, C.V. class in parentheses, read-out: IC50 S. tritici): > 100 µM; IC50 (Stagonospora nodorum; [1]): > 100 µM
5 | OC(c1cccnc1)c1c(-c2ccc(Cl)cc2Cl)noc1-c1cccs1 (stereo not shown) [Compound 12, 3-(2,4-Dichlorophenyl)-4-[(3-pyridyl)hydroxymethyl]-5-(2-thienyl)isoxazole] | – | > 100 µM | A (b) | B (c) | B (d) | –
6 | OC(c1cccnc1)c1c(-c2ccc(Cl)cc2Cl)noc1-c1ccsc1 (stereo not shown) [Compound 13, 3-(2,4-Dichlorophenyl)-4-[(3-pyridyl)hydroxymethyl]-5-(3-thienyl)isoxazole] | – | > 100 µM | A (b) | B (b) | B (d) | –
